Reference: paper PMC5412286, “Biosynthesis of α-Glucosidase Inhibitors by a Newly Isolated Bacterium, Paenibacillus sp. TKU042 and Its Effect on Reducing Plasma Glucose in a Mouse Model” (International Journal of Molecular Sciences, 2017)
Marks after values point to notes of the source that are not given here.

What was measured:
[1] = molecular target: T1, Saccharomyces cerevisiae α-glucosidase (Saccharomyces cerevisiae, UniProt P53341); experiment: yeast α-glucosidase inhibition assay; format: biochemical; conditions: S. cerevisiae α-glucosidase
T1 construct: purchased Sigma Chemical Co., St. Louis, MO, USA
T1 sequence (P53341 whole entry): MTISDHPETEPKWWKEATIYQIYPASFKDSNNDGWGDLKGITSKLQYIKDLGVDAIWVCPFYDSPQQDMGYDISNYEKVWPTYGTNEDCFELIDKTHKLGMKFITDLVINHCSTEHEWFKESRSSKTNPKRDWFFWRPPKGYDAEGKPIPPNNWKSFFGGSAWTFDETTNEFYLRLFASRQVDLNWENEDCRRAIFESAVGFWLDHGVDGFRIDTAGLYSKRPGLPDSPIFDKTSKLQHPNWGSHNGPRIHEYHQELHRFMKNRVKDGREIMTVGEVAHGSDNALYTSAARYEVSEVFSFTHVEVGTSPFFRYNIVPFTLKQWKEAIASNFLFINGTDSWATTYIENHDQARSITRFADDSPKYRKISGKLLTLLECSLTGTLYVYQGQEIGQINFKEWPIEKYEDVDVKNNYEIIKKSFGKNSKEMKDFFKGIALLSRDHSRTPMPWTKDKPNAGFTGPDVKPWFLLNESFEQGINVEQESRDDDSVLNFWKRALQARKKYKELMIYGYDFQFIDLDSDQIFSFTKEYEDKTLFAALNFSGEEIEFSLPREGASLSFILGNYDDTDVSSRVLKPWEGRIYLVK
Experimental: SPP, SHP (shrimp head powder), and NB were used as the sole sources of C/N with concentrations of 1%, 1% and 0.8%, respectively. Fermentation conditions were set at 30 °C, shaking speed of 150 rpm, 100/250 mL for the medium/flask volume ratio, and 1 mL of bacterial seed solution (OD660nm = 0.38). The inhibition against yeast α-glucosidase was then tested and calculated in % (A) or U/mL (B); the growth of Paenibacillus sp. TKU042 was detected at OD660nm (C). […] Saccharomyces cerevisiae α-glucosidase was used to test aGI activity.
All of the isolated strains were incubated in a 250-mL Erlenmeyer flask with 50 mL of the same medium, but without agar. Fermentation was performed at 37 °C and a 150 rpm shaking speed. After 1–4 days of fermentation, the culture was centrifuged at 500 rpm for 10 min to remove the medium residue. The solution was then centrifuged again at 4000 rpm for 20 min to separate the cells from the culture supernatant. The supernatant was then used to test yeast α-glucosidase inhibitory activity. […] The screening of active bacteria was based on the inhibitory activity of the supernatant.
Three sources of C/N (1% SPP, 1% SHP, and 0.8% NB) were used to cultivate Paenibacillus sp. TKU042; conditions were set at 30 °C, a shaking speed of 150 rpm and a 100/250 mL medium/flask volume ratio for nine days. […]

Rat α-glucosidase = experiment: rat intestinal α-glucosidase inhibition assay; format: biochemical
Experimental: To determine rat intestinal α-glucosidase inhibition, the techniques from the previous report were followed, with modifications. One hundred mg of rat-intestinal acetone powder was suspended in 4 mL of 0.1 mol/L potassium phosphate buffer (NPB), pH 7. The suspension was sonicated several times for 12 s at 4 °C and then centrifuged for 20 min at 10,000× g. The residues were twice suspended with 3 mL of 0.1 mol/L NPB at pH 7, as described above. The resulting supernatant was mixed together and dialyzed for 12 h at 4–6 °C, and then used for the assay. The α-glucosidase, sample solutions and buffer were pre-mixed at volumes of 50, 50 and 100 μL, respectively. After pre-incubation at 37 °C for 20 min, the reaction started when 50 μL of p-nitrophenyl glucopyranoside (10 mmol/L) was added to the mixture. After 20 min at 37 °C, 100 μL Na2CO3 solution (1 mol/L) was added to terminate the reaction. The absorbance of the final mixture was measured at 410 nm and used to calculate inhibition (%) using the following equation: α-glucosidase inhibitory activity (%) = (A − B)/A × 100 where “A” is the absorbance of the control (buffer was used instead of sample with the same volume) and “B” is the absorbance of the final mixture containing the sample and α-glucosidase. The IC50 value was defined and determined as per the previous study. […]

ICR mice = experiment: diarrhea / ill effects in the sucrose tolerance test; conditions: FNB 100, 200 or 400 mg, acarbose 12.5 mg, FNB (100, 200 mg) with acarbose 12.5 mg
Experimental: A sucrose solution was orally administered at 3 g/kg bw and blood was sampled and measured after 0.5, 1, 1.5 and 2 h.

[2] = DPPH radical scavenging activity assay
Experimental: One hundred and twenty microliters of each sample (at different concentrations) was mixed with 30 µL of a methanolic solution containing 0.75 mM DPPH radicals in the well of a plate with 96 wells. The mixture was kept in the dark for 30 min before absorbance at 517 nm was measured. Radical scavenging activity was calculated using the following formula: Antioxidant activity (%) = [(AB − AA)/AB] × 100 where AB and AA stand for absorption of the blank sample (t = 0 min) and absorption of the tested sample solution (t = 30 min), respectively. α-Tocopherol dissolved in MeOH was also analyzed as a control.

SMILES	Maximum Inhibitory Activity [1] [%]	IC50 (Rat α-glucosidase)	Maximum Inhibitory Activity (Rat α-glucosidase) [%]	ill effects (diarrhea), in words (ICR mice)	antioxidant activity IC50 (DPPH radical scavenging) ([2]; DPPH, 30 min, 517 nm) [µg/mL]	antioxidant activity achieved (DPPH) ([2]; maximum activity)
C[C@H]1O[C@H](O[C@H]2[C@H](O)[C@@H](O)[C@@H](O[C@H]3[C@H](O)[C@@H](O)C(O)O[C@@H]3CO)O[C@@H]2CO)[C@H](O)[C@@H](O)[C@@H]1N[C@H]1C=C(CO)[C@@H](O)[C@H](O)[C@H]1O (stereo partly drawn) [acarbose]	63 ± 2.5	107 ± 2.5 ^c µg/mL	89 ± 2.4	No ill effects	–	–
Cc1c(C)c2c(c(C)c1O)CC[C@@](C)(CCC[C@H](C)CCC[C@H](C)CCCC(C)C)O2 [α-Tocopherol]	–	–	–	–	24.7 ± 1.2	approximately 100%
